Reference: ChEMBL document CHEMBL5291721, “A preclinical secondary pharmacology resource illuminates target-adverse drug reaction associations of marketed drugs” (Nat Commun, 2023)

Columns and labels:
[1] = target: Adenosine receptor A2a (Homo sapiens, UniProt P29274)
[2] = target: Beta-1 adrenergic receptor (Homo sapiens, UniProt P08588); type: functional
[3] = target: Motilin receptor (Homo sapiens, UniProt O43193)
[4] = target: 5-hydroxytryptamine receptor 2A (Homo sapiens, UniProt P28223); type: functional, cell-based
5-hydroxytryptamine receptor 2A, sequence (P28223 whole entry): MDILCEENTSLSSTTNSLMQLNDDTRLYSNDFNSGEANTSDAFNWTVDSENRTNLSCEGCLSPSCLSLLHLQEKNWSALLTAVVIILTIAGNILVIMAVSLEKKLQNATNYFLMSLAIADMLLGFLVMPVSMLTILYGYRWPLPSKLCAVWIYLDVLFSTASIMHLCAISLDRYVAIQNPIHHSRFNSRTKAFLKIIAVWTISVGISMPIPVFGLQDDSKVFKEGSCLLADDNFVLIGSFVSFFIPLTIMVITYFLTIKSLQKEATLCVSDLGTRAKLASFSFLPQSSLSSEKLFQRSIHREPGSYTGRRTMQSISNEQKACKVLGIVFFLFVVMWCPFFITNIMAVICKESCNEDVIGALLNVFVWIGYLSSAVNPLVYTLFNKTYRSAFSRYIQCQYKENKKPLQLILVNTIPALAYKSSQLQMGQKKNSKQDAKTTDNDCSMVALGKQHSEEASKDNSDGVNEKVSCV

[5] = target: Sodium-dependent serotonin transporter (Homo sapiens, UniProt P31645)
[6] = target: T1, Neuropeptide Y receptor type 1 (Homo sapiens, UniProt P25929)
T1 sequence (P25929 whole entry): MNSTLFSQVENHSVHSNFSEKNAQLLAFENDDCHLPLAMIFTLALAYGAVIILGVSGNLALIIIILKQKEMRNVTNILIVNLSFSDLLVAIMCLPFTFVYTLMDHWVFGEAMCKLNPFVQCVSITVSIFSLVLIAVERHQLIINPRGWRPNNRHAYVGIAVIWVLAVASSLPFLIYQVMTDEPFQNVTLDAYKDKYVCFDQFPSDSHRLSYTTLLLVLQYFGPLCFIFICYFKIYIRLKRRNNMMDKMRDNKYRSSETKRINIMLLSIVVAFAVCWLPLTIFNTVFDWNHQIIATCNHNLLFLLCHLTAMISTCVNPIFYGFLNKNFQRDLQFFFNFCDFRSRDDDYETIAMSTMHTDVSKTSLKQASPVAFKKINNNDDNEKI

[7] = target: Vasopressin V1a receptor (Homo sapiens, UniProt P37288)
Vasopressin V1a receptor, sequence (P37288 whole entry): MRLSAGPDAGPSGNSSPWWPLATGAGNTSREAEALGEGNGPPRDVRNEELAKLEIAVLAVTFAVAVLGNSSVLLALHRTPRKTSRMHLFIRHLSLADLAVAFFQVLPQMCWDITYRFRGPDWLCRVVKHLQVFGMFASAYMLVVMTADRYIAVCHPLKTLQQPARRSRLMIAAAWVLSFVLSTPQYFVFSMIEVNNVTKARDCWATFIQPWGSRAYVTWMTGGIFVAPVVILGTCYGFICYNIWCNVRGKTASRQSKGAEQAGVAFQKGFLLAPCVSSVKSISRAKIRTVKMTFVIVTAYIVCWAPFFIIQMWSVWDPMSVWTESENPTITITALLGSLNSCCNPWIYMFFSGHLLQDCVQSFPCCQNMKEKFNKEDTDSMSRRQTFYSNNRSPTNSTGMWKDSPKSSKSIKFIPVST

[8] = target: T2, Prostaglandin G/H synthase 1 (Rattus norvegicus, UniProt Q63921); type: functional
T2 sequence (Q63921 whole entry): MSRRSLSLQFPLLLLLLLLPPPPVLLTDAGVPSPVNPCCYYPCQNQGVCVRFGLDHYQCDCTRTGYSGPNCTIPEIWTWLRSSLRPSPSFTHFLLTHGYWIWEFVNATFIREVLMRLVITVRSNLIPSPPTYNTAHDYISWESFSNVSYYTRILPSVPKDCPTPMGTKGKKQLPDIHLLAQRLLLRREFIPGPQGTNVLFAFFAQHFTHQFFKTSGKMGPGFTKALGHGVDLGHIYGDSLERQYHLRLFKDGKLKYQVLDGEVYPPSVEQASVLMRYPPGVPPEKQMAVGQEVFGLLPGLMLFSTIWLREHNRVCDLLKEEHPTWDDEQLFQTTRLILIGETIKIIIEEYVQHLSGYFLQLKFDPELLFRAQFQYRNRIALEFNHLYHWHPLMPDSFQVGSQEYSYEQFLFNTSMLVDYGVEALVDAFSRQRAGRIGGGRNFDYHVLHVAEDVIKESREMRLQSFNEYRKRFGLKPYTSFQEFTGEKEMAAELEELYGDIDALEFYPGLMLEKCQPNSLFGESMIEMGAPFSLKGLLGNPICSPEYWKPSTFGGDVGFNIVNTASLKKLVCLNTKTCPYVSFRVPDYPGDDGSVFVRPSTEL

[9] = target: Histamine H1 receptor (Homo sapiens, UniProt P35367)
Histamine H1 receptor, sequence (P35367 whole entry): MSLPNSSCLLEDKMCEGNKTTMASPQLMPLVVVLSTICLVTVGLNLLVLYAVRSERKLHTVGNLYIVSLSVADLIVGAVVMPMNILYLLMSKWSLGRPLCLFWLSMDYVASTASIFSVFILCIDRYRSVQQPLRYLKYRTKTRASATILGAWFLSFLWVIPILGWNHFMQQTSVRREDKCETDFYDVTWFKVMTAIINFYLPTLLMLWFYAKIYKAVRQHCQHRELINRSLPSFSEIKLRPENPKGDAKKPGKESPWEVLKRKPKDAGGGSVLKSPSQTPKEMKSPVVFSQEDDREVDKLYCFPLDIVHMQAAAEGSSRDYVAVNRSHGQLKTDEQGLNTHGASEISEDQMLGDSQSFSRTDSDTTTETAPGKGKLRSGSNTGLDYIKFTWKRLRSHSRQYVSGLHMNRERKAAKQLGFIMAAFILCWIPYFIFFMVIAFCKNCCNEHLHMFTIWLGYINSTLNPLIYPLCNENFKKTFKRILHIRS

[10] = target: T3, 5-hydroxytryptamine receptor 2C (Homo sapiens, UniProt P28335)
T3 sequence (P28335 whole entry): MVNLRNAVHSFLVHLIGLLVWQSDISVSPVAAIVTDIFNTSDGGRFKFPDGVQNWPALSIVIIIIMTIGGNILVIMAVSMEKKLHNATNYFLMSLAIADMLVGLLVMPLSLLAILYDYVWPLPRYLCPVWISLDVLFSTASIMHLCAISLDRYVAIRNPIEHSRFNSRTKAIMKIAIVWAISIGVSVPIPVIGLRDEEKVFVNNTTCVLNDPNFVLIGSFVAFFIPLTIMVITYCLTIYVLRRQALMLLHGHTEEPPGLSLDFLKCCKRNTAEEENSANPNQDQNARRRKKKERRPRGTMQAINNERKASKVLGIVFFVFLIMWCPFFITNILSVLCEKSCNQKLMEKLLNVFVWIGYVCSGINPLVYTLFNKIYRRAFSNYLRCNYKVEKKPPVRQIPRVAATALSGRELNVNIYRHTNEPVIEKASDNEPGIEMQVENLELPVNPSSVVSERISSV

[11] = target: T4, Muscarinic acetylcholine receptor M2 (Homo sapiens, UniProt P08172); type: functional, cell-based
T4 sequence (P08172 whole entry): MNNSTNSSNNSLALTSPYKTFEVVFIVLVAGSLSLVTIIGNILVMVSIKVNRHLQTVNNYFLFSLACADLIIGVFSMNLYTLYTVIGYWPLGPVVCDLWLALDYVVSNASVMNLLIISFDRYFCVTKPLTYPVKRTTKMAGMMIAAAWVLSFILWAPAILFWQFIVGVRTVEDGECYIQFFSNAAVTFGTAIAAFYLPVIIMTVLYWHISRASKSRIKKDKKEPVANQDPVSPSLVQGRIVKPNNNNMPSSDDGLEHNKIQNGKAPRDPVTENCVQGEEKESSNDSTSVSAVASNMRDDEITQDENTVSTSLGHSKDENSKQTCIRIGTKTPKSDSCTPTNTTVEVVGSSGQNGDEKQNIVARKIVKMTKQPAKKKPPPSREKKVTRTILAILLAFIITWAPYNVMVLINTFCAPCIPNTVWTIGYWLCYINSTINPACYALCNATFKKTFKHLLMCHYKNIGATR

[12] = target: Mu-type opioid receptor (Homo sapiens, UniProt P35372); assay: biochemical; type: functional
Mu-type opioid receptor, sequence (P35372 whole entry): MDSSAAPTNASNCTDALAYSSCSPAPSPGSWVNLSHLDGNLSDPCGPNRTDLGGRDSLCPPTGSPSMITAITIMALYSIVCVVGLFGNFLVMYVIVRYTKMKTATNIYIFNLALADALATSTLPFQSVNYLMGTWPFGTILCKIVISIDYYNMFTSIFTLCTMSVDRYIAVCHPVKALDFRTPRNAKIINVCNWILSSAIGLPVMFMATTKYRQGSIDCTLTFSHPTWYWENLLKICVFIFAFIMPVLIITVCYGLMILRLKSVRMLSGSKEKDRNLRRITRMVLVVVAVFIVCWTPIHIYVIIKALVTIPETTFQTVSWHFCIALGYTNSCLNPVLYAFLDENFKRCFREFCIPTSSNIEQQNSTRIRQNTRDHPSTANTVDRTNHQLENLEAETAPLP

[13] = target: Sodium-dependent noradrenaline transporter (Homo sapiens, UniProt P23975)
[14] = target: Neuronal acetylcholine receptor subunit alpha-4 (Homo sapiens, UniProt P43681)
Neuronal acetylcholine receptor subunit alpha-4, sequence (P43681 whole entry): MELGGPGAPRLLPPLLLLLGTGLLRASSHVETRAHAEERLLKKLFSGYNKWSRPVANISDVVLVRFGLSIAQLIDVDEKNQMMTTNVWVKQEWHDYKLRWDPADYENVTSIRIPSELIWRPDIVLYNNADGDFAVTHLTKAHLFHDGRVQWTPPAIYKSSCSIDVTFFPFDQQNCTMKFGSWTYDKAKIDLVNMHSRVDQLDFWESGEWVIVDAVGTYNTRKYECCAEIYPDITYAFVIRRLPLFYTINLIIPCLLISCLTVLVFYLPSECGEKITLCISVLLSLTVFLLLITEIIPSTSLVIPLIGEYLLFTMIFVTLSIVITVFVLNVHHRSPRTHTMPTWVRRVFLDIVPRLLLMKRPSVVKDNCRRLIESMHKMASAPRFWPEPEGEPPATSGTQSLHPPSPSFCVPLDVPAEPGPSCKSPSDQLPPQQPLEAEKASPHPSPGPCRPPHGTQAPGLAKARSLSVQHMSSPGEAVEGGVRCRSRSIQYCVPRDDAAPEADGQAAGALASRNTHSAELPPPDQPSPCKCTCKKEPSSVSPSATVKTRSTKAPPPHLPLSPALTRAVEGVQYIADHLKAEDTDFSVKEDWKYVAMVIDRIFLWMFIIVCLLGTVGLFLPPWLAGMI

[15] = target: 3',5'-cyclic-AMP phosphodiesterase 4D (Homo sapiens, UniProt Q08499); type: functional
[16] = target: Glutamate receptor ionotropic, NMDA 1 (Rattus norvegicus, UniProt P35439)
[17] = target: cGMP-inhibited 3',5'-cyclic phosphodiesterase 3A (Homo sapiens, UniProt Q14432); type: functional
cGMP-inhibited 3',5'-cyclic phosphodiesterase 3A, sequence (Q14432 whole entry): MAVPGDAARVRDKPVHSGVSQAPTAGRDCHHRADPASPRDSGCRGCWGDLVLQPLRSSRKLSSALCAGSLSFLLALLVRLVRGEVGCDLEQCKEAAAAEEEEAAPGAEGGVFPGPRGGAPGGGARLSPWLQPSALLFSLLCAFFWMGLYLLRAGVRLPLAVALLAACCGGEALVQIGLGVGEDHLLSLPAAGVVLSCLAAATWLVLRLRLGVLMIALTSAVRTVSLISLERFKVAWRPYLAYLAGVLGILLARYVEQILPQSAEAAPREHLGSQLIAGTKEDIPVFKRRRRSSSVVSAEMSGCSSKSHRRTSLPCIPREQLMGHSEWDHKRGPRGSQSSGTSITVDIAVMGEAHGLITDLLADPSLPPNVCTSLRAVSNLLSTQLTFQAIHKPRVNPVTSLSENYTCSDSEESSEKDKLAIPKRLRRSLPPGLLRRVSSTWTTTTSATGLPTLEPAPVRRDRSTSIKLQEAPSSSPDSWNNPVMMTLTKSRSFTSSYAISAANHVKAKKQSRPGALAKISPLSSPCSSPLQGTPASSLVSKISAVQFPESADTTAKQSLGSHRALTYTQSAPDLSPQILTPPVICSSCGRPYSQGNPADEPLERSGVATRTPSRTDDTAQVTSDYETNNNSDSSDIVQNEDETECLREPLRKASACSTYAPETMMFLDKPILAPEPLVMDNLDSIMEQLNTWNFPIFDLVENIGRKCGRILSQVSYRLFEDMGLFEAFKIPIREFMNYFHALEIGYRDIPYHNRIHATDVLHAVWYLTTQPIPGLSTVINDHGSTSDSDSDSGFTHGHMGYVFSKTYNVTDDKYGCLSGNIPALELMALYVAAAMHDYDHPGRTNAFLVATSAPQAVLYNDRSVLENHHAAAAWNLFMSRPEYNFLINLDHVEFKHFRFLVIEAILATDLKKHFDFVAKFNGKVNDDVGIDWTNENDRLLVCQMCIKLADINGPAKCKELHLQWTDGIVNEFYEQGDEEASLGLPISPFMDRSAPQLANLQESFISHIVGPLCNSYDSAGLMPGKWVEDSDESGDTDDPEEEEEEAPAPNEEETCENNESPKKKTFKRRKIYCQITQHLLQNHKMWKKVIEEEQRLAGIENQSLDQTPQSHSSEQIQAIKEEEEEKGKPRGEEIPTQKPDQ

Measured: AC50
Note: assay procedure not described here.

Beta-1 adrenergic receptor, sequence (P08588 whole entry): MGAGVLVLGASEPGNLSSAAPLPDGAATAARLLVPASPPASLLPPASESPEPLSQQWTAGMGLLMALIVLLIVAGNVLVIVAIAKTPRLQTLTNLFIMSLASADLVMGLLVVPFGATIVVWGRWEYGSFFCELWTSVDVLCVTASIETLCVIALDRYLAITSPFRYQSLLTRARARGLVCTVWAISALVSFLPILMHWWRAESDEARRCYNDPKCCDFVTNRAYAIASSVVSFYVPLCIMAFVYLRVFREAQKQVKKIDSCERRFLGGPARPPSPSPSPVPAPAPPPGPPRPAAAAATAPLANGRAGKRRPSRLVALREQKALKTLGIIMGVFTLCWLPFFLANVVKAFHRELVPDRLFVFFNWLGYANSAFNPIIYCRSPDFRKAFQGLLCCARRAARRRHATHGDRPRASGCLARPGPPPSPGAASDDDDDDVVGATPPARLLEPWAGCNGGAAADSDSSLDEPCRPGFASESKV
Adenosine receptor A2a, sequence (P29274 whole entry): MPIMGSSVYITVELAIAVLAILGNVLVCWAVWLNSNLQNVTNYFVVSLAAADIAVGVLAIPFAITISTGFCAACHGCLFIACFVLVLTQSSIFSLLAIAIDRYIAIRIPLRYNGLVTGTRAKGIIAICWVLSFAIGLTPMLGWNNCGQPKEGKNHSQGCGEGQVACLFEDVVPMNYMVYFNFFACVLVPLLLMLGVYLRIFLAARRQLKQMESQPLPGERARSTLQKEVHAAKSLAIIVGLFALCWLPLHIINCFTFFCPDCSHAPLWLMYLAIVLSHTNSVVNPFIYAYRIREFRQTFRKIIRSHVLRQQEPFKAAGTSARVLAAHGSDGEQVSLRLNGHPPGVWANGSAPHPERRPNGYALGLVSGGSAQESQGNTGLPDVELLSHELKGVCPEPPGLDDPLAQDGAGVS
Motilin receptor, sequence (O43193 whole entry): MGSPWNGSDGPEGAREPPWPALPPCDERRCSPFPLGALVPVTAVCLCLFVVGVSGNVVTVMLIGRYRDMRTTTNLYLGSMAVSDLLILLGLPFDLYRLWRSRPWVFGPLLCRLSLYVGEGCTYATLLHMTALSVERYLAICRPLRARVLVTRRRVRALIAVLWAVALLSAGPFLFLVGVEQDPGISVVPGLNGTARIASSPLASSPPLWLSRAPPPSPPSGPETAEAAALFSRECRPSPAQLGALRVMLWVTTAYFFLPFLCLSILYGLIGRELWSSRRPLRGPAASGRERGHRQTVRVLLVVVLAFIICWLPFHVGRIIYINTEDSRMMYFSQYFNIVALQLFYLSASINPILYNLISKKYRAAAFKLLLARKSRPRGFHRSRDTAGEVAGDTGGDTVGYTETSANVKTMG

COc1ccccc1OCCNCC(O)c1ccc(C)c(S(N)(=O)=O)c1 (stereo not given) [AMOSULALOL]
> 10 µM: [17]
16 µM: [9]
6.7 µM: [15]
29 µM: [5]
> 30 µM: [1] | [3] | [4] | [6] | [7] | [8] | [10] | [11] | [12] | [13] | [14] | [16]
0.06 µM: [2]

C=CCN1CCCC1CNC(=O)c1cc(S(N)(=O)=O)cc(OC)c1OC (stereo not given) [VERALIPRIDE]
25 µM: [5]
> 30 µM: [1] | [2] | [3] | [4] | [6] | [7] | [8] | [9] | [10] | [11] | [12] | [13] | [14] | [15] | [16]
> 10 µM: [17]

CC(Oc1c(Cl)cccc1Cl)C1=NCCN1 (stereo not given) [LOFEXIDINE]
11 µM: [5]
> 30 µM: [1] | [2] | [3] | [4] | [6] | [7] | [8] | [9] | [10] | [11] | [12] | [13] | [14] | [15] | [16] | [17]

CC(C)=CCC/C(C)=C/C=C/C(C)=C/C=C/C(C)=C/C=C/C=C(C)/C=C/C=C(C)/C=C/C=C(\C)CCC=C(C)C [LYCOPENE]
> 30 µM: [1] | [2] | [3] | [4] | [5] | [6] | [7] | [8] | [9] | [10] | [11] | [12] | [13] | [14] | [15] | [16] | [17]

C[C@]1(O)CC[C@H]2[C@@H]3CCC4=CC(=O)CC[C@]4(C)[C@@]3(F)[C@@H](O)C[C@@]21C [FLUOXYMESTERONE]
> 10 µM: [1] | [2] | [3] | [4] | [5] | [6] | [7] | [8] | [11] | [13] | [14] | [16]
> 30 µM: [9] | [10] | [12] | [15] | [17]
